Results on eight compounds are retold here after patent publication US20110092465A1, “MONOMERIC PYROPHOSPHATE COMPLEXES AND METHODS OF TREATMENT USING THE COMPLEXES” (SYRACUSE UNIVERSITY, priority 2009, published 2011).

The subject of data set [1] is A2780/AD cell line. The format is cell-based, human. The procedure:
Cisplatin was used as a control and for comparative purposes. The IC50 values (μM) are for compounds 1-4 in A2780/AD cell line. Cisplatin controls and dimeric complexes previously reported are also shown for comparison:
Experimental details for the in-vitro cell testing of compounds [Co(phen)2(H2P2O7)].4H2O (1.4H2O), [Ni(phen)2(H2P2O7)].8H2O (2.8H2O) and [Cu(phen)(H2O)(H2P2O7)]. For in vitro cell studies, all experiments were performed in a Labconco Purifier I laminar flow hood that had been disinfected with 70% ethanol and irradiated with UV light. The A2780/AD cell line that was used for testing was provided by the Fox Chase Cancer Center, Philadelphia (USA). Fetal bovine serum (FBS) was purchased from Hyclone. Penicillin-streptomycin solution with 10,000 units penicillin and 10 mg/mL streptomycin in 0.9% NaCl was obtained from Sigma. Gibco RPMI 1640 growth media that contained L-glutamine and phenol red was supplied by Invitrogen. Cellgro Cellstripper, a non-enzymatic cell dissociation solution, was obtained from Mediatech. Growth media were filtered with 0.22 μm filter (VWR). Cell Counting Kit 8 (CCK8) was purchased from Dojindo. Cells were incubated and grown in an incubator that was purchased from VWR. Optical densities of the cell cultures were measured at 450 nm with Thermo Multiskan EX that was equipped with Ascent software version 2.6.
Cell lines and culture conditions. The A2780/AD cell line was cultured in BD Falcon 25 cm^2 surface area, canted neck flaks with vented cap (VWR) containing RPMI media supplemented with 10% FBS and 10% Penicillin-Streptomycin solution by volume. Subcultures were generated by incubating the cells with Cellstripper, and passing cells at a 1:10 culture ratio.
Drug cytotoxicity. Cells used for studies were diluted to make either a solution of 50,000 cells/mL, used for the 72 h studies, or 80,000 cells/mL, used for the 6 and 24 h studies. 100 μL of the cell solution was added to the wells of a 96 well plate, and the cells were allowed to adhere overnight. The media was then removed from the 96 well plates and replaced with either 100 μL (for 6 h studies) or 200 μL (for 24 and 72 h studies) of media containing drug. Drug solutions were prepared by dissolving the drug in media (compounds 2, 4) or in a 25% methanol solution (compounds 1, 3). The solutions were filter sterilized and serially diluted 1:10. The concentration of methanol was kept below 5% for all concentrations studied. Cisplatin was prepared by dissolving in PBS and sonicating for 1 h to create a final concentration of 0.5 mg/mL (1.66 mM). Each drug was tested over 9 concentrations in triplicate with each point in done in triplicate. After the incubation period, the drug containing media was removed and replaced with 100 μL of media containing 10% CCK-8 solution by volume. The plates were incubated until the control reached 0.8-1.2 absorbance at 450 nm (2, 1.5 and 0.5 h for the 6, 24, 72 h runs respectively). The absorbance was measured at 450 nm via a plate reader. A blank was subtracted from all wells, and the results were plotted as a percentage compared to the control vs. concentration of drug. IC50 values were calculated by fitting the data using Prism Graphpad 5 using a nonlinear, dose response curve with a 4 variable fit. The reported ICso values are an average of at least 3 runs reported with standard deviation.

Data set [2] concerns adriamycin-resistant human ovarian cancer cell line (A2780/AD). The experiment in a line: Proliferation colorimetric assay (WSK-8) of compounds 11-13 in A2780/AD. The format is cell-based. To be noted: for toxicity in words: 24 and 72 h. The method, then: Compounds 11, 12, and 13 were tested against the adriamycin-resistant human ovarian cancer cell line (A2780/AD) over a time period of 24 and 72 h (Table 8 below). Cisplatin was used as an external control. Adriamycin resistant ovarian cancer cell line (A2780/AD) were cultured as adherent monolayers in RPMI 1640 (Invitrogen) growth media containing L-glutamine and folic acid supplemented with 10,000 units penicillin, 10 mg/ml streptomycin (Sigma) and 10% (v/v) fetal bovine serum (Sigma). Cells were incubated and grown in a VWR mammalian incubator at 5% CO2 and 95% humidity. All preparations for cell culture and assays were conducted in a sterile environment under a Labconco Purifier I Laminar flow hood. Cells were cultured in Millipore 250 mL culture bottles with vented lids.
The proliferation of the exponential phase cultures of A2780/AD were assessed by colorimetric assay. WSK-8 (Dojindo) was performed according to manufacturer's instruction. Adherent cell cultures were harvested by stripping of culture flask by a non-enzymatic cell stripper (Mediatech) after a 30 minute incubation period. The cells were then collected. The cell density was adjusted with the addition of RPMI 1640 media to 80,000 cells/mL for exponential growth for the period of drug exposure. To each well, aliquots of 100 μL were inoculated resulting in 8,000 cells per well. After a 24 h incubation time to facilitate adherence, the media was removed and replaced with 200 μl of fresh media containing different concentrations of compounds 11, 12, and 13. The cells were then incubated for 24 and 72 h. Optical densities were measured at 450 nm using a plate reader. The percentage of cell viability was determined relative to untreated control microcultures. The IC50 concentrations were calculated based on a sigmoidal (doseresponse) fit using OriginLabs 8 software with R^2 values ≧0.70 in all cases (average R^2 value 0.90). All experimental points were measured in triplicate and each experiment was performed at least three times on separate “batches” of synthesized compound. A2780/AD2O cells used were fewer than 12 passages for all testing.

The test system is the same in data set [3]. The conditions noted are these: dimeric complexes previously reported (Ref 3), cited from earlier work.
Setting [4] is: A2780/AD, 6 h exposure, read-out: IC50 6 h.
[5] abbreviates: A2780/AD, 24 h exposure, read-out: IC50 24 h.
Where [6] appears, read: A2780/AD, 72 h exposure, read-out: IC50 72 h.
Setting [7] is: 24 h exposure, read-out: IC50 24 h.
Setting [8] is: 72 h exposure, read-out: IC50 72 h.

Like-named read-outs stand apart in the source and are kept apart here.

By IC50 is commonly meant the point on the concentration scale where inhibition reaches its midpoint. For the compound `O=P([O-])(O)OP(=O)([O-])O.[Co+2].c1cnc2c(c1)ccc1cccnc12.c1cnc2c(c1)ccc1cccnc12` [compound 1, [Co(phen)2(H2P2O7)].4H2O], the IC50 in data set [1] was 0.03 to 0.08 µM; in data set [1] (setting [4]), more than 1000 µM; in data set [1] (setting [5]), 5 µM; in data set [1] (setting [6]) it was 0.03 ± 0.02 µM. Also, the “cytotoxic activity in words” value in data set [1] is “low nanomolar range”.
Regarding `O=P([O-])(O)OP(=O)([O-])O.[Ni+2].c1cnc2c(c1)ccc1cccnc12.c1cnc2c(c1)ccc1cccnc12` [compound 2, [Ni(phen)2(H2P2O7)].8H2O], the toxicity in words entry in data set [2] was “low nanomolar inhibitory concentrations”. Moreover, the “cytotoxic activity in words” value in data set [1] is recorded as “little activity”. Further, the IC50 in data set [1] (setting [4]) was more than 1000 µM; in data set [1] (setting [5]), more than 1000 µM; in data set [1] (setting [6]) it was 630 ± 390 µM.
As for `O.O=P([O-])(O)OP(=O)([O-])O.[Cu+2].c1cnc2c(c1)ccc1cccnc12` [compound 3, [Cu(phen)(H2O)(H2P2O7)]], the 50% inhibitory concentration (IC50) in data set [2] (72 h, read-out: IC50 at 72 h) is approximately 0.000162 µM; in data set [1] (setting [4]), 14 ± 6 µM; in data set [1] (setting [5]), 0.7 µM; in data set [1] (setting [6]) it was 0.14 ± 0.05 µM. For the same compound, the “cytotoxic activity in words” value in data set [1] is on record as “low nanomolar range”.
As to `O.O.O.O.O.O.O.O.O.O.O.O.O.O.O.O=P([O-])([O-])OP(=O)([O-])[O-].[Cu+2].[Na+].[Na+].c1cnc2c(c1)ccc1cccnc12` [compound 4, {[Cu(phen)(H2O)(P2O7)] [Na2(H2O)8]}.6H2O], the IC50 was 0.03 to 0.08 µM in data set [1], 15 ± 6 µM in data set [1] (setting [4]), 0.6 ± 0.6 µM in data set [1] (setting [5]) and 0.08 ± 0.03 µM in data set [1] (setting [6]). Besides, the “cytotoxic activity in words” value in data set [1] is on record as “low nanomolar range”.
As to `O=P([O-])([O-])OP(=O)([O-])[O-].[Ni+2].[Ni+2].c1cnc2c(c1)ccc1cccnc12.c1cnc2c(c1)ccc1cccnc12.c1cnc2c(c1)ccc1cccnc12.c1cnc2c(c1)ccc1cccnc12` [compound 11, {[Ni(phen)2]2(μ-P2O7)}.27H2O], the toxicity in words entry in data set [2] was “low toxicity”. Further, the IC50 is 589 ± 31.6 µM in data set [2] (setting [7]); 304 ± 40.9 µM in data set [2] (setting [8]); 590 µM in data set [3] (24 h, read-out: IC50 24 h); 304 µM in data set [3] (72 h, read-out: IC50 72 h).
For `O.O.O.O.O.O.O.O.O.O.O=P([O-])([O-])OP(=O)([O-])[O-].[Cu+2].[Cu+2].c1cnc2c(c1)ccc1cccnc12.c1cnc2c(c1)ccc1cccnc12` [compound 12, {[Cu(phen)(H2O)]2(μ-P2O7)}.8H2O], the toxicity in words entry in data set [2] is “significant toxicity”. In addition, the IC50 in data set [2] (setting [7]) is 0.64 ± 0.12 µM; in data set [3] (24 h, read-out: IC50 24 h) it was 0.6 µM; in data set [3] (72 h, read-out: IC50 72 h), 0.0018 µM.
Take `O=P([O-])([O-])OP(=O)([O-])[O-].[Co+2].[Co+2].c1cnc2c(c1)ccc1cccnc12.c1cnc2c(c1)ccc1cccnc12.c1cnc2c(c1)ccc1cccnc12.c1cnc2c(c1)ccc1cccnc12` [compound 13, {[Co(phen)2]2(μ-25 P2O7)}.6MeOH]: in data set [2], the toxicity in words result was “significant toxicity”. Moreover, the IC50 in data set [2] (setting [7]) was 2.01 ± 0.86 µM; in data set [2] (72 h, read-out: IC50 at 72 h), 0.00016 µM; in data set [3] (24 h, read-out: IC50 24 h), 2 µM; in data set [3] (72 h, read-out: IC50 72 h) it was 0.00017 µM.
Consider “cis-[Pt(NH3)2Cl2] [Cisplatin, reference compound]”, for which the IC50 in data set [2] (setting [7]) is 84 ± 10.3 µM; in data set [2] (setting [8]), 11 ± 1.5 µM; in data set [1] (setting [4]), more than 160 µM; in data set [1] (setting [5]) it was 200 ± 16 µM; in data set [1] (setting [6]) it was 13 ± 5 µM.
